Test results from PMC4820820, “CETSA screening identifies known and novel thymidylate synthase inhibitors and slow intracellular activation of 5-fluorouracil” (Nature Communications, 2016).
Read-outs that look alike come from different tables or passages of the source.

Test system: K562 cells
Experiment: Cell viability assay (CellTiter-Glo)
Type: cell-based
Conditions: Homo sapiens
Method: A concentration–response curve of CBK115334 was generated using the Bravo liquid handling system (serial dilution of a 50 mM stock solution was done in 100% DMSO). A total of 150 nl of the serially diluted solutions and controls (positive control 0.67 mM staurosporine and negative control DMSO) were transferred to a white 384-well assay plate (3570, Corning) by means of acoustic dispensing (Echo 550, Labcyte). A Multidrop reagent dispenser (Thermo Scientific) was used to dispense 30 μl of a K562 cell suspension at a density of 33 × 10^3 cells per ml in supplemented cell culture medium. The cells were incubated at 37 °C in the presence of 5% CO2 for 72 h before addition of 30 μl CellTiter-Glo Luminescent Cell Viability Assay reagent (Promega) using a Multidrop Combi reagent dispenser (Thermo Scientific). The plate was placed on a plate shaker for 15 min prior to detection of the luminescence signal in an Envision plate reader (PerkinElmer). The final highest concentration of CBK115334 in the incubation with cells was 250 μM and the final concentration of the positive control staurosporine was 3 μM. All samples contained 0.5% DMSO. The data were analyzed using microsoft excel and GraphPad Prism 6.

IC50 (72 hours incubation, read-out: IC50 cell viability): 88 ± 15 µM | IC50 (read-out: IC50 cell proliferation): < 100 µM
Structure (SMILES): Cc1cc(O)nc2sc(C(=O)c3ccccc3)c(N)c12 [CBK115334, 3-amino-2-benzoyl-4-methylthieno(2,3-b)pyridin-6-ol]
